Converted amounts (≈) assume the structure as drawn. Structures can show the parent of a compound that is named as a salt. A value given as a limit tells only on which side of the number the result lay.

In patent US5650411A, “Substituted azolone derivatives” (Janssen Pharmaceutica N.V., priority 1993, dated 1997) one finds MIC data, which are given here for 23 compounds.

The subject of one assay is Helicobacter pylori. As to the kind of experiment: Minimal inhibitory concentration (MIC) against Helicobacter pylori, urease read-out, 5 clinical strains. It counts as cell-based. Particulars: 5 H. pylori clinical strains, 10% blood agar, 48 h at 37° C., microaerophilic, read-out: MIC. The protocol: The anti-Helicobacter activity of the subject compounds was assessed by the following in-vitro test procedure.
The activity of test compounds against Helicobacter pylori was determined against a standard set of 5 H. priori strains obtained from clinical material. Minimal inhibitory concentrations (MICs) were determined by measuring the activity of H. pylori urease after treatment of growing cultures of the bacteria with the antimicrobial agents.
The test compounds were dissolved in DMSO at a concentration of 10^-3 M. A dilution to 10^-4 M in DMSO was also prepared. 10 μl volumes of these solutions were pipetted in the wells of Repli-Dishes (®Sterilin). Wells containing DMSO alone were included as controls in each Repli-Dish. Ampicillin ((+)-6-[(2-amino-2-phenylacetyl)amino]-3,3-dimethyl-7-oxo-4-thia-1-azabicyclo[3.2.0]heptane-2-carboxylic acid trihydrate) and metronidazole (2-methyl-5-nitro-1H-imidazol-1-ethanol) were included as reference compounds in each batch of tests. (These compounds were tested at final concentrations of 10^-5, 10^-6, 10^-7 and 10^-8 M). Test plates were stored at 4° C. until used. The five isolates of H. pylori were maintained by subculture on 10% blood agar every 2 or 3 days. The bacteria were grown at 37° C. under an atmosphere containing 5% oxygen, 10% CO2 and 85% nitrogen. Suspensions of Helicobacter pylori for inoculum were prepared in Brain-heart infusion broth and adjusted to an absorbance of 1.5±0.3 at […].
Freshly prepared 10% blood agar held at 45° C. was added in 1 ml volumes to the wells of the test plates, thus diluting the test compounds to 10^-5 and 10^-6 M. The medium was allowed to cool, then 10 μl volumes of bacterial suspension were pipetted on the agar surface. The plates were incubated for 48 h at 37° C. under the microaerophilic atmosphere described above. […] After the 48 h of incubation, 1 ml volumes of urease broth were gently added to each Repli-Dish well and the plates were incubated at 37° C. for 2 h. 100 μl samples of fluid from each well were then pipetted into the wells of 96-place microdilution plates. A purple colour was interpreted as growth, yellow-orange as no growth of H. pylori. By this means a clear end-point was obtained, from which the inhibitory effects could be determined.
Table 1 summarizes the MIC values determined by the above procedure for a subset of the subject compounds.
As a reminder, the MIC is the lowest concentration that inhibits growth of the organism. With `Cc1nn(C(C)C(O)c2ccc(Br)cc2)c(=O)n1-c1ccc(N2CCN(c3ccc(O)cc3)CC2)nc1` (centres unmarked) [compound 23, 2-[2-(4-bromophenyl)-2-hydroxy-1-methylethyl]-2,4-dihydro-4-[6-[4-(4-hydroxy-phenyl)-1-piperazinyl]-3-pyridinyl]-5-methyl-3H-1,2,4-triazol-3-one], the MIC stood at 1 µM (≈ 0.565 µg/mL).
Same read-out and setting: as for `CCC(C(=O)c1ccc(Cl)cc1)n1ncn(-c2ccc(N3CCN(c4ccc(O)cc4)CC3)nc2)c1=O` (racemic) [compound 25, (±)-2-[1-(4-chlorobenzoyl)propyl]-2,4-dihydro-4-[6-[4-(4-hydroxyphenyl)-1-piperazinyl]-3-pyridinyl]-3H-1,2,4-triazol-3-one], the figure is 0.1 µM (≈ 0.0519 µg/mL); as for `CCC(C(=O)c1ccc(Cl)cc1)n1ncn(-c2cnc(N3CCN(c4ccc(OC)cc4)CC3)nc2)c1=O` (racemic) [compound 8, (±)-2-[1-(4-chlorobenzoyl)propyl]-2,4-dihydro-4-[2-[4-(4-methoxyphenyl)-1-piperazinyl]-5-pyrimidinyl]-3H-1,2,4-triazol-3-one], 0.1 µM (≈ 0.0534 µg/mL); as for `CCC(C(=O)c1ccc(Cl)cc1)n1ncn(-c2ccc(N3CCN(c4ccc(OC)cc4)CC3)cn2)c1=O` (racemic) [compound 2, (±)-2-[1-(4-chlorobenzoyl)propyl]-2,4-dihydro-4-[5-[4-(4-methoxyphenyl)-1-piperazinyl]-2-pyridinyl]-3H-1,2,4-triazol-3-one], 10 µM (≈ 5.33 µg/mL).
As to `CC[C@H]([C@H](O)c1ccc(Cl)cc1)n1ncn(-c2ccc(N3CCN(c4ccc(OC)cn4)CC3)cc2)c1=O` (relative stereo) [compound 15, (±)-(RR,SS)-2-[1-[(4-chlorophenyl)hydroxymethyl]propyl]-2,4-dihydro-4-[4-[4-(5-methoxy-2-pyridinyl)-1-piperazinyl]phenyl]-3H-1,2,4-triazol-3-one], the MIC was determined as 0.1 µM (≈ 0.0535 µg/mL).
With `Cc1ccc(C(O)C(C)n2ncn(-c3ccc(N4CCN(c5ccc(O)cc5)CC4)cc3)c2=O)cc1` (centres unmarked) [compound 33, 2,4-dihydro-2-[2-hydroxy-1-methyl-2-(4-methylphenyl)ethyl]-4-[4-[4-(4-hydroxyphenyl)-1-piperazinyl]phenyl]-3H-1,2,4-triazol-3-one], the MIC was 1 µM (≈ 0.486 µg/mL).
For the compound `Cc1cc(N2CCN(c3ccc(-n4c(C)nn([C@H](C)[C@H](O)c5ccc(Cl)cc5Cl)c4=O)cc3)CC2)cc(C)c1O` (single isomer, unassigned) [compound 32, (+)-(R*,R*)-2-[2-(2,4-dichlorophenyl)-2-hydroxy-1-methylethyl]-2,4-dihydro-4-[4-[4-(4-hydroxy-3,5-dimethylphenyl)-1-piperazinyl]phenyl]-5-methyl-3H-1,2,4-triazol-3-one dihydrate], the minimum inhibitory concentration (MIC) came out at 1 µM.
Turning to `COc1ccc(C(=O)C(C)n2ncn(-c3ccc(N4CCN(c5ccc(O)cc5)CC4)cc3)c2=O)cc1` (centres unmarked) [compound 35, 2,4-dihydro-4-[4-[4-(4-hydroxyphenyl)-1-piperazinyl]phenyl]-2-[1-(4-methoxy-benzoyl)ethyl]-3H-1,2,4-triazol-3-one], the MIC was 10 µM (≈ 5 µg/mL).
In the case of `CC(C(O)c1ccc(Br)cc1)n1ccn(-c2ccc(N3CCN(c4ccc(O)cc4)CC3)cc2)c1=O` (centres unmarked) [compound 9, [A]+[B]-1-[2-(4-bromophenyl)-2-hydroxy-1-methylethyl]-1,3-dihydro-3-[4-[4-(4-hydroxyphenyl)-1-piperazinyl]phenyl]-2H-imidazol-2-one], the minimum inhibitory concentration (MIC) is 1 µM (≈ 0.549 µg/mL).
On to `CCC(C(=O)c1ccc(Cl)cc1)n1ncn(-c2cnc(N3CCN(c4ccc(O)cc4)CC3)nc2)c1=O` (racemic) [compound 26, (±)-2-[1-(4-chlorobenzoyl)propyl]-2,4-dihydro-4-[2-[4-(4-hydroxyphenyl)-1-piperazinyl]-5-pyrimidinyl]-3H-1,2,4-triazol-3-one], for which the MIC was found to be 0.1 µM (≈ 0.052 µg/mL).
The same measure, in the same setting: then `Cc1nn(C(C)(C)C(O)c2ccc(Br)cc2)c(=O)n1-c1ccc(N2CCN(c3ccc(O)cc3)CC2)cc1` (racemic) [compound 22, (±)-2-[2-(4-bromophenyl)-2-hydroxy-1,1-dimethylethyl]-2,4-dihydro-4-[4-[4-(4-hydroxyphenyl)-1-piperazinyl]phenyl]-5-methyl-3H-1,2,4-triazol-3-one], with 1 µM (≈ 0.579 µg/mL).
Consider `CCC(C(=O)c1ccc(Cl)cc1)n1ncn(-c2ccc(N3CCN(c4ccccc4OC)CC3)nc2)c1=O` (racemic) [compound 5, (±)-2-[1-(4-chlorobenzoyl)propyl]-2,4-dihydro-4-[6-[4-(2-methoxyphenyl)-1-piperazinyl]-3-pyridinyl]-3H-1,2,4-triazol-3-one], for which the MIC came out at 0.1 µM (≈ 0.0533 µg/mL).
For the compound `CCC(C(=O)c1ccc(Cl)cc1)n1ncn(-c2ccc(N3CCN(c4ccc(OC)c(OC)c4)CC3)nc2)c1=O` (racemic) [compound 48, (±) -2-[1-(4-chlorobenzoyl)propyl]-4-[6-[4-(3,4-dimethoxyphenyl)-1-piperazinyl]-3-pyridinyl]-2,4-dihydro-3H-1,2,4-triazol-3-one dihydrochloride], the minimal inhibitory concentration (MIC) was ≤ 0.001 µM.
With `CC[C@H]([C@H](O)c1ccc(Cl)cc1)n1ncn(-c2ccc(N3CCN(c4ccccc4OC)CC3)nc2)c1=O` (relative stereo) [compound 17, (±)-(R*,R*)-2-[1-[(4-chlorophenyl)hydroxymethyl]propyl]-2,4-dihydro-4-[6-[4-(2-methoxyphenyl)-1-piperazinyl]-3-pyridinyl]-3H-1,2,4-triazol-3-one], the minimum inhibitory concentration (MIC) worked out at 0.1 µM (≈ 0.0535 µg/mL).
The same measure, in the same setting: then `CCC(C(=O)c1ccc(Cl)cc1)n1ncn(-c2ccc(N3CCN(c4ccc(OC)cn4)CC3)nc2)c1=O` (racemic) [compound 37, (±)-2-[1-(4-chlorobenzoyl)propyl]-2,4-dihydro-4-[6-[4-(5-methoxy-2-pyridinyl) -1-piperazinyl]-3-pyridinyl]-3H-1,2,4-triazol-3-one], with 0.1 µM (≈ 0.0534 µg/mL); and `CCC(C(=O)c1ccc(Cl)cc1)n1ncn(-c2ccc(N3CCN(c4ccc(OC)cn4)CC3)cc2)c1=O` (racemic) [compound 3, (±)-2-[1-(4-chlorobenzoyl)propyl]-2,4-dihydro-4-[4-[4-(5-methoxy-2-pyridinyl)-1-piperazinyl]phenyl]-3H-1,2,4-triazol-3-one], with 0.1 µM (≈ 0.0533 µg/mL).
For the compound `CCC(C(=O)c1ccc(Cl)cc1)n1ncn(-c2ccc(N3CCC(c4cccc(OC)c4)CC3)nc2)c1=O` (racemic) [compound 7, (±)-2-[1-(4-chlorobenzoyl)propyl]-2,4-dihydro-4-[6-[4-(3-methoxyphenyl)-1-piperidinyl]-3-pyridinyl]-3H-1,2,4-triazol-3-one], the MIC came out at 0.1 µM (≈ 0.0532 µg/mL).
Consider `CCC(C(=O)c1ccc(Cl)cc1)n1ncn(-c2ccc(N3CCN(c4ccc(OC)nc4)CC3)cc2)c1=O` (racemic) [compound 6, (±)-2-[1-(4-chlorobenzoyl)propyl]-2,4-dihydro-4-[4-[4-(6-methoxy-3-pyridinyl)-1-piperazinyl]phenyl]-3H-1,2,4-triazol-3-one], for which the MIC worked out at 0.1 µM (≈ 0.0533 µg/mL).
Regarding `CC(C(O)c1ccc(Cl)cc1)n1ccn(-c2ccc(N3CCN(c4ccc(O)cc4)CC3)cc2)c1=O` (centres unmarked) [compound 12, 1-[2-(4-chlorophenyl)-2-hydroxy-1-methylethyl]-1,3-dihydro-3-[4-[4-(4-hydroxy-phenyl)-1-piperazinyl]phenyl]-2H-imidazol-2-one], the MIC worked out at 0.1 µM (≈ 0.0505 µg/mL).
On the same count and under the same terms, as for `CCC(C(=O)c1ccc(Cl)cc1)n1ncn(-c2ccc(N3CCN(c4cccc(O)c4)CC3)nc2)c1=O` (racemic) [compound 28, (±)-2-[1-(4-chlorobenzoyl)propyl]-2,4-dihydro-4-[6-[4-(3-hydroxyphenyl)-1-piperazinyl]-3-pyridinyl]-3H-1,2,4-triazol-3-one], the figure is 0.01 µM (≈ 0.00519 µg/mL).
As for `CCC[C@H]([C@H](O)c1ccc(Cl)cc1)n1ncn(-c2ccc(N3CCN(c4cccc(OC)c4)CC3)nc2)c1=O` (relative stereo) [compound 40, (±)-(R* ,R*)-2-[1-[(4-chlorophenyl)hydroxymethyl]butyl]-2,4-dihydro-4-[6-[4-(3-methoxyphenyl)-1-piperazinyl]-3-pyridinyl]-3H-1,2,4-triazol-3-one], the minimal inhibitory concentration (MIC) amounted to 0.1 µM (≈ 0.0549 µg/mL).
Regarding `Cc1cn(C(C)C(O)c2ccc(Cl)cc2)c(=O)n1-c1ccc(N2CCN(c3ccc(O)cc3)CC2)cc1` (centres unmarked) [compound 11, 1-[2-(4-chlorophenyl)-2-hydroxy-1-methylethyl]-1,3-dihydro-3-[4-[4-(4-hydroxyphenyl)-1-piperazinyl]phenyl]-4-methyl-2H-imidazol-2-one], the MIC was found to be 1 µM (≈ 0.519 µg/mL).

Staying with this assay, now noted: 48 h.
As to `CC(C(=O)c1ccc(Br)cc1)n1ncn(-c2ccc(N3CCN(c4ccc(O[Si](C)(C)C(C)(C)C)cc4)CC3)cc2)c1=O` (centres unmarked) [compound 47, 2-[1-(4-bromobenzoyl)ethyl]-4-[4-[4-[4-[[(1,1-dimethylethyl)dimethylsilyl]oxy]phenyl]-1-piperazinyl]phenyl]-2,4-dihydro-3H-1,2,4-triazol-3-one], the MIC is 1 µM (≈ 0.663 µg/mL).
